# Measurements as given in PMC3618943, “Interaction of Natural Dietary and Herbal Anionic Compounds and Flavonoids with Human Organic Anion Transporters 1 (SLC22A6), 3 (SLC22A8), and 4 (SLC22A11)” (Evidence-based Complementary and Alternative Medicine : eCAM, 2013).
# “Also recorded” adds a separate entry of the source. Where a name gives a salt, the structure may show the parent alone. Read-outs that look alike come from different tables or passages of the source.
# What was measured:
# [1] = target: T1, hOAT1 (SLC22A6) (Homo sapiens, UniProt Q4U2R8); test: Inhibition of hOAT1-mediated [3H]PAH uptake, cell accumulation assay in CHO-hOAT1 cells; format: cell-based; conditions: for Ki: assuming competitive inhibition, 1 min uptake, read-out: inhibition constant Ki for hOAT1; for Ki / effect on hOAT1-mediated PAH uptake (in words): 1 μM [3H]PAH
# T1 construct: expressed in transfected cells
# T1 sequence (Q4U2R8 1-550 isoform Q4U2R8-2): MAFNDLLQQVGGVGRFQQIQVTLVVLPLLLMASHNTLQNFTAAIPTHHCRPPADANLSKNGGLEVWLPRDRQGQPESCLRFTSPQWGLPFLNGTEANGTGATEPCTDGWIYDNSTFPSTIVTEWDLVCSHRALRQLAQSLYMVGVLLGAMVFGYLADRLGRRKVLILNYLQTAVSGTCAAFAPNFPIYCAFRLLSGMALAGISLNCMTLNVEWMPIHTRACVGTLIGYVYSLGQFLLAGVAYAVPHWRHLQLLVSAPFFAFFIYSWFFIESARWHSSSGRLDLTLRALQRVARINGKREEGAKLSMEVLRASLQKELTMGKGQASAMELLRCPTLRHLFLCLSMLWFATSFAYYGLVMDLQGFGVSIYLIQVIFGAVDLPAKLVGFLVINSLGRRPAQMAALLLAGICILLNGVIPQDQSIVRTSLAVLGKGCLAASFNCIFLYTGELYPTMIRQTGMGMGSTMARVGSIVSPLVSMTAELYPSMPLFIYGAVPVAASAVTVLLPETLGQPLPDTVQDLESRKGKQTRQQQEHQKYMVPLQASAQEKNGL
# Method: (§1) The cell accumulation assay protocol was performed as described in our recent publications with minor modifications. In brief, 2 × 10^5 cells/well were seeded in 24-well tissue culture plates and grown in the absence of antibiotics for two days. For transport experiments cells were preincubated in transport buffer without substrates or inhibitors for 10 min after which time the buffer was replaced with 400 μL of fresh transport buffer containing 1 μM [^3H]PAH (0.5 μCi/mL) or [^3H]ES (0.25 μCi/mL) with or without test compounds. After incubation for times specified in the figure legends, cellular uptake was quenched by quickly rinsing each well three times with fresh ice-cold transport buffer. Cells were lysed with 1 M NaOH and radioactivity was measured with a liquid scintillation counter and reported as picomoles of substrate per milligram total protein. All intracellular uptake data were corrected for background accumulation in corresponding empty vector transfected control cells. Kinetic calculations were performed using GraphPad Prism Software version 5.0 (GraphPad Software Inc., San Diego, CA). The half maximal inhibitory concentrations (IC50) and inhibitory constants (K i) were calculated using nonlinear regression with the appropriate models. Results were confirmed by repeating all experiments at least three times with triplicate wells for each data point.
# Ten-minute uptake of [^3H]PAH (1 μM) was measured in CHO-hOAT1 cells in the absence and presence of test compounds (50 μM) or probenecid (1000 μM). Data represent hOAT1-mediated transport specifically, that is, data have been corrected for background PAH accumulation measured in empty vector transfected cells. Values are mean ± S.D. of triplicate values from a representative experiment. ** denotes P < 0.01, and *** denotes P < 0.001 as determined by one-way ANOVA followed by Dunnett's t-test.
# One-minute uptake of [^3H]PAH (1 μM) in CHO-hOAT1 cells was measured in the presence of increasing concentrations (10^−7 to 5 × 10^−4 M) of test compounds. Data were corrected by subtracting background PAH accumulation measured in empty vector transfected cells. IC50 values were determined with nonlinear regression and the “log(inhibitor) versus response” model using GraphPad Prism software. Experiments were repeated three times with triplicate samples and graphs shown are from representative experiments with values plotted as mean ± S.D. (n = 3). The data were used to generate mean IC50 ± S.E.M. estimates.
# [2] = target: T2, hOAT3 (SLC22A8) (Homo sapiens, UniProt Q8TCC7); test: Inhibition of hOAT3-mediated [3H]ES uptake, cell accumulation assay in HEK-hOAT3 cells; format: cell-based; conditions: 10 min uptake; for inhibition at 50 µM / effect on hOAT3-mediated ES uptake (in words): 50 μM test compound; for inhibition at 50 µM: 1 μM [3H]ES (50-fold excess)
# T2 construct: expressed in transfected cells
# T2 sequence (Q8TCC7 1-542): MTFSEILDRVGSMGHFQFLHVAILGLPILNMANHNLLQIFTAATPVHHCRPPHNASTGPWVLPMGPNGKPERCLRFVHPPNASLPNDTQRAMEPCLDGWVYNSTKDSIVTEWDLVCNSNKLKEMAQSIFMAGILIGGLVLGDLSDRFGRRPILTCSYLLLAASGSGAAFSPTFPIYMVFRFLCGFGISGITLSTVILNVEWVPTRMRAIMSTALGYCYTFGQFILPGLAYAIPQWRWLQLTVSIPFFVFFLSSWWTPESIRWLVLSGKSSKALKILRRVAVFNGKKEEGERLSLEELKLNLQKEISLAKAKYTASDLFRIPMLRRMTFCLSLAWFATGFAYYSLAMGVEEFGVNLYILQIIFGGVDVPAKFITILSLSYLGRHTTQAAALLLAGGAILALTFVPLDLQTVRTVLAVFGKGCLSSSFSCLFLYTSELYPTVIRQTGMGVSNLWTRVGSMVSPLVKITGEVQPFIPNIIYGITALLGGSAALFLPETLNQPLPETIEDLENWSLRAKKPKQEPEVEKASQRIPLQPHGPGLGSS
# Method: (§2) Derivation and culture of stably transfected Chinese hamster ovary (CHO) cells expressing hOAT1 (CHO-hOAT1) and hOAT4 (CHO-hOAT4), stably transfected human embryonic kidney 293 (HEK) cells expressing hOAT3 (HEK-hOAT3), and their corresponding empty vector transfected background control cell lines, have been described previously.
# as §1, with “point. […]” for “point.”
# Figure 4 Inhibitory effects of the nine test compounds on hOAT3-mediated ES uptake. Ten-minute uptake of [^3H]ES (1 μM) was measured in HEK-hOAT3 cells in the absence and presence of test compounds (50 μM) or probenecid (1000 μM). Data represent hOAT3-mediated transport specifically, that is, data have been corrected for background ES accumulation measured in empty vector transfected cells. Values are mean ± S.D. of triplicate values from a representative experiment. * denotes P < 0.05, ** denotes P < 0.01, and *** denotes p < 0.001 as determined by one-way ANOVA followed by Dunnett's t-test.
# [3] = target: T1, hOAT1 (SLC22A6); test: Inhibition of hOAT1-mediated [3H]PAH uptake, cell accumulation assay in CHO-hOAT1 cells; format: cell-based; conditions: dose-response 0.01–500 μM, 1 μM [3H]PAH, 1 min uptake, mean ± S.E.M., read-out: IC50 on hOAT1-mediated PAH transport
# [4] = target: T3, hOAT4 (SLC22A11) (Homo sapiens, UniProt Q9NSA0); test: Inhibition of hOAT4-mediated [3H]ES uptake, cell accumulation assay in CHO-hOAT4 cells; format: cell-based
# T3 construct: expressed in transfected cells
# T3 sequence (Q9NSA0 1-550): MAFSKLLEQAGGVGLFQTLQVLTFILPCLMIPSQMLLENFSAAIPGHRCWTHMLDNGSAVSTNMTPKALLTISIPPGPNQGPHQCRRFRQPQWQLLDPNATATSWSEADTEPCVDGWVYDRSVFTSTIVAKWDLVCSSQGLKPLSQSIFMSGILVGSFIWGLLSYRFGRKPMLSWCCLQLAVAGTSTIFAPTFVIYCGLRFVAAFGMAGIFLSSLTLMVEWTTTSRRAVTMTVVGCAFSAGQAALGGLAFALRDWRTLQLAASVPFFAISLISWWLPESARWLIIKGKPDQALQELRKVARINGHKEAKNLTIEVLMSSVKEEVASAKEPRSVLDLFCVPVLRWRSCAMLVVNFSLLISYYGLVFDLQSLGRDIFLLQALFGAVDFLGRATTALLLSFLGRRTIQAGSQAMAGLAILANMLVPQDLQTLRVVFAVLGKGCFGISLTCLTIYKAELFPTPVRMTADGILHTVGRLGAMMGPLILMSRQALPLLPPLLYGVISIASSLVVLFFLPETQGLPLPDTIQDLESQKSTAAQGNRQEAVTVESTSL
# Method: as §2
# as §1, with “point. […]” for “point.”
# Figure 5 Inhibitory effects of the nine test compounds on hOAT4-mediated ES uptake. Ten minute uptake of [^3H]ES (1 μM) was measured in CHO-hOAT4 cells in the absence and presence of test compounds (50 μM) or ES (1000 μM for self-inhibition). Data represent hOAT4-mediated transport specifically, that is, data have been corrected for background ES accumulation measured in empty vector transfected cells. Values are mean ± S.D. of triplicate values from a representative experiment. * denotes P < 0.05, and *** denotes P < 0.001 as determined by one-way ANOVA followed by Dunnett's t-test.
# [5] = human subjects, cited from earlier work
# [6] = target: T2, hOAT3 (SLC22A8); set-up: method as in PMID 22877817; conditions: linear uptake for initial 1 min; cited from earlier work
# [7] = 50 μM test compound, 1 μM [3H]PAH (50-fold excess), 10 min uptake
# [8] = 50 μM test compound, 1 μM [3H]ES, 10 min uptake, CHO-hOAT4 cells
# [9] = 50 μM test compound, 10 min uptake
compound,measurement,setting,value
"O=C(/C=C/c1ccc(O)c(O)c1)O[C@@H]1C[C@@](OC(=O)/C=C/c2ccc(O)c(O)c2)(C(=O)O)C[C@@H](O)[C@@H]1O [1,3-Dicaffeoylquinic acid, 1,3-dicaffeoylquinic acid]",inhibition at 50 µM,[1]; [7],64%
same,Ki,[1],1.1 ± 0.2 µM
same,inhibition at 50 µM,[2],41%
same,IC50,[3],1.2 ± 0.4 µM
"O=C(C=Cc1ccc(O)c(O)c1)OC1CC(OC(=O)C=Cc2ccc(O)c(O)c2)(C(=O)O)CC(O)C1O (stereo not shown) [1,5-Dicaffeoylquinic acid, 1,5-dicaffeoylquinic acid]",inhibition at 50 µM,[1]; [7],22%
same,inhibition at 50 µM,[2],30 to 35%
same,effect on hOAT4-mediated ES uptake (in words),[4]; [8],significant stimulation of ES uptake
same,Cmax,"[5]; oral, 600 mg",0.14 µM
CC1(C)[C@@H](O)CC[C@]2(C)[C@H]3C(=O)C=C4[C@@H]5C[C@@](C)(C(=O)O)CC[C@]5(C)CC[C@@]4(C)[C@]3(C)CC[C@@H]12 [18β-glycyrrhetinic acid],inhibition of hOAT1-mediated PAH uptake,[1]; [7],56%
same,Ki,[1],2.5 ± 0.2 µM
same,effect on hOAT3-mediated ES uptake (in words),[2]; 1 μM [3H]ES,failed to produce significant inhibition
same,effect on hOAT4-mediated ES uptake (in words),[4]; [8],significant stimulation of ES uptake
same,IC50,[3],2.7 ± 0.2 µM
same,Cmax,"[5]; oral, 130–144 mg glycyrrhizin, assuming plasma 18α- : 18β-glycyrrhetinic acid about 1 : 3",0.11 to 2.9 µM
Oc1cc(O)c2c(c1)O[C@H](c1ccc(O)c(O)c1)[C@@H](O)C2 [Catechin],effect on hOAT1-mediated PAH uptake (in words),[1]; [9],no inhibition
same,effect on hOAT3-mediated ES uptake (in words),[2]; 1 μM [3H]ES,failed to produce significant inhibition
same,inhibition at 50 µM,[4]; [8],32%
same,IC50,"[4]; inferred from level of inhibition at 50 μM, no kinetic study, read-out: IC50 on hOAT4 transport activity",> 50 µM
"C[C@]12CC[C@@H]3c4ccc(OS(=O)(=O)O)cc4CC[C@H]3[C@@H]1CCC2=O [ES, estrone sulfate, reference compound]",inhibition of hOAT4-mediated ES uptake (self-inhibition),"[4]; unlabeled ES 1000 μM, 1 μM [3H]ES, 10 min uptake, CHO-hOAT4 cells",> 96%
same,K m of ES uptake in hOAT3 expressing cells,[6],14.5 µM
Oc1cc(O)c2c(c1)O[C@H](c1ccc(O)c(O)c1)[C@H](O)C2 [Epicatechin],effect on hOAT1-mediated PAH uptake (in words),[1]; [9],no inhibition
same,inhibition at 50 µM,[2],30 to 35%
same,Cmax,"[5]; oral, 37 mg",0.2 µM
C[C@H]1[C@H](C)CC[C@]2(C(=O)O)CC[C@]3(C)C(=CC[C@@H]4[C@@]5(C)CC[C@H](O)C(C)(C)[C@@H]5CC[C@]43C)[C@H]12 [Ursolic acid],effect on hOAT1-mediated PAH uptake (in words),[1]; [9],significant stimulation of uptake
same,effect on hOAT3-mediated ES uptake (in words),[2]; 1 μM [3H]ES,failed to produce significant inhibition; also recorded: without effect
same,effect on hOAT4-mediated ES uptake (in words),[4]; [8],without effect
same,Cmax,"[5]; i.v., 186 mg",7.4 µM
CCCCCCC=CCCCCCCCc1cccc(O)c1C(=O)O [ginkgolic acid (15 : 1)],inhibition at 50 µM,[2],30 to 35%
CCCCCCC=CCCCCCCCCCc1cccc(O)c1C(=O)O [ginkgolic acid (17 : 1)],inhibition at 50 µM,[1]; [7],42%
same,inhibition at 50 µM,[2],41%
"CCCN(CCC)S(=O)(=O)c1ccc(C(=O)O)cc1 [probenecid, reference compound]",inhibition at 1000 µM,"[2]; probenecid 1000 μM, 1 μM [3H]ES",> 96%
